According to US11613528B2, “Small molecule inhibitors of shared epitope-calreticulin interactions and methods of use” (The Regents of the University of Michigan, priority 2017, dated 2023):
Entries after “also recorded” stand apart in the source; their conditions may differ.

Assays:
[1] = oral availability in vivo (oral gavage, serum levels); set-up: species or system DBA/1 mice
[2] = system: SE-CRT interactions; test: inhibition of SE-CRT interactions; type: binding
[3] = system: mice with CIA; test: collagen induced arthritis (CIA) animal model; type: in vivo, DBA/1 mice; settings: oral, doses as low as 1.25 μg/Kg body weight twice weekly
Procedure: Arthritis incidence was recorded.
2-tailed Student t-test; **, p<0.005.
Specifically, experiments were conducted with an animal model of collagen induced arthritis (CIA).

[4] = permeability through Caco-2 cell layers; type: in vitro ADME; settings: human
[5] = system: SKG mice; test: pre-clinical model of RA in SKG mice; type: in vivo
[6] = system: RAW 264.7 cells; test: in vitro osteoclast (OC) differentiation assay; type: cell-based, mouse
Procedure: OC differentiation was determined at day 5.
RAW 264.7 cells were cultured in OC-differentiating conditions in the presence or absence of the racemic mix (left) of HL840, the S-enantiomer (middle), or the R-enantiomer (right) at different concentrations, and their inhibitory effect on OC differentiation was determined at day 5.
To differentiate osteoclast (OC) from RAW 264.7 mouse macrophages, cells were cultured in the same way (2×10^4 per well), except that RANKL was added at a concentration of 20 ng/ml, for 5-6 days in the presence or absence of various compounds at different concentrations. To quantify the number of OCs, cultures were fixed and stained for tartrate-resistant acid phosphatase (TRAP) activity using an acid phosphatase kit (Kamiya Biomedical Company, Seattle, Wash.) according to the manufacturer's instructions. TRAP-positive multinucleated OCs (>3 nuclei) were counted using a tissue culture inverted microscope. All experiments were performed in triplicates and repeated 4 (C & D, n=12) or 3 (E-L; n=9) times. Percent inhibition of OC formation relative to cultures with PBS were calculated and presented as dose-response curves. IC50 values were calculated using the GraphPad-Prism software.

| Papp A→B [4] | IC50 ([6]; Mus musculus, RAW264.7, 120 h, RAW 264.7 cells in OC-differentiating conditions, OC differentiation at day 5, read-out: anti-osteoclast (OC) activity IC50) | SMILES | oral availability in vivo [1] | inhibition of SE-CRT interactions [2] | arthritis severity [3] | bone destruction (radiologic bone damage) [3] | disease development (arthritis incidence) [3] | therapeutic effects [5] | enantiomer-specific activity (e.g., inhibition of SE-CRT interaction and signaling) of racemic HL840 ([6]; inhibitory effect on OC differentiation at day 5, FIG. 3) |
| --- | --- | --- | --- | --- | --- | --- | --- | --- | --- |
| 5.6 ×10⁻⁶ cm/s | 0.0199 nM | Cn1cc(/C=C/C(=O)N2CCC[C@@H](Cn3cc(CN)nn3)C2)cn1 (racemic) [HL840, (R,E)-(1-((1-(3-(1-methyl-1H-pyrazol-4-yl)acryloyl)piperidin-3-yl)methyl)-1H-1,2,3-triazol-4-yl)methanaminium] | moderately orally available; also recorded: orally available in vivo | potent, competitive inhibition | decreased arthritis severity | prevented bone destruction | strongly inhibited disease development | Significant therapeutic effects | – |
| – | – | Cn1cc(/C=C/C(=O)N2CCC[C@@H](Cn3cc(CN)nn3)C2)cn1 (single isomer, unassigned) [(R)-enantiomer] | – | – | – | – | – | – | responsible for all activity |
